Reference: PMC4175339, “Inhibition of the Functional Interplay between Endoplasmic Reticulum (ER) Oxidoreduclin-1α (Ero1α) and Protein-disulfide Isomerase (PDI) by the Endocrine Disruptor Bisphenol A” (The Journal of Biological Chemistry, 2014)

Molecular target: T1, human PDI + hyperactive human Ero1α (Ero1α-mediated PDI oxidation) (Homo sapiens, UniProt P07237)
T1 construct: gene P4HB; recombinant from E. coli; with ERO1-like protein alpha
Assay: NADPH consumption assay coupled to glutathione reductase, A340
Type: biochemical

T1 sequence (P07237 18-508): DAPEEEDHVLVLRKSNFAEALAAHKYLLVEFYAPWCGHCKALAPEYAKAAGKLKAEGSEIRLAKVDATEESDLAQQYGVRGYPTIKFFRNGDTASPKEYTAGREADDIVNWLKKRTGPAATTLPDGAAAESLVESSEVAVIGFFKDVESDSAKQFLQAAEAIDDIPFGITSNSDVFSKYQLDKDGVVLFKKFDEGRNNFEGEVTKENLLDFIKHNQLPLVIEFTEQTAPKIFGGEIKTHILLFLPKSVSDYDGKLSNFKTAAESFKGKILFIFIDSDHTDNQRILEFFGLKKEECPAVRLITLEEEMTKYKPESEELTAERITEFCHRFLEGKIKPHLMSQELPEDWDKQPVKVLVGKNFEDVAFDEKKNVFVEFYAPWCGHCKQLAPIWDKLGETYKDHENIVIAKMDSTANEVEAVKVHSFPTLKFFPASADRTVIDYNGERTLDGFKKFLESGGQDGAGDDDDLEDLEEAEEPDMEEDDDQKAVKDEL
T1 sequence (Q96HE7 24-468 C104A/C131A partner): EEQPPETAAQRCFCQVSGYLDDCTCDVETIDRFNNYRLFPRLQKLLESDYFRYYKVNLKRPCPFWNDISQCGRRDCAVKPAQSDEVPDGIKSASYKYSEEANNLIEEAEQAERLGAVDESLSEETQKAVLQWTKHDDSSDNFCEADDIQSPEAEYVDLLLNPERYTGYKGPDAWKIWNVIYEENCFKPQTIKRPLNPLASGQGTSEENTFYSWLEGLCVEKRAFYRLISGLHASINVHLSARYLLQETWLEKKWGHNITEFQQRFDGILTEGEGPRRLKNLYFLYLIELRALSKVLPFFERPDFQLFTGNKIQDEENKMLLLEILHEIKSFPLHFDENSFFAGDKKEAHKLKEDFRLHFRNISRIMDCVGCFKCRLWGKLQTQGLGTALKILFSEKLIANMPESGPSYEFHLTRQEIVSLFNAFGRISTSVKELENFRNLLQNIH

**Q.** How did the IC50 turn out when `CC(C)(c1ccc(O)cc1)c1ccc(O)cc1` [bisphenol A, 2,2′-bis(4-hydroxyphenyl) propane] was run?
**A.** The IC50 was 41 µM.
